US9463338B2, “Derivatives of the sinapinic acid” (PHARMASYNTHESE, priority 2013, dated 2016)
“And” between values parts separate entries of the source, which are not always exact repeats. Identical values can stand only once. Marks after values point to notes of the source that are not given here.

Key:
[1] = ORAC (Oxygen Radical Absorbance Capacity) antioxidant activity; type: biochemical; settings: for antioxidant activity in comparison with trolox: ORAC
From the text: The ORAC (Oxygen Radical Absorbance Capacity) method, described in Cao, G., Alessio, H. M., Cutler, R. G. Free radical Biology & Medecine 1993, 14: 303-311<<Oxygen-Radical Absorbance Capacity assay for antioxydants>> and Benderitter, M., Vincent-Genid, L., Pouget, J. P., Voisin, P. Radiation Research 2003; 159 (4): 471-483 <<The cell membrane as a biosensor of oxydative stress induced by radiation exposure:multiparameter investigation>>, has been used for measuring the anti-oxidant capability of the compounds of the invention.
By convention, the ORAC antioxidant activity of any molecule is measured in comparison with a recognized reference which is an analog of vitamin E, the trolox (6-hydroxy-2,5,7,8-tetramethylchroman-2-carboxylic acid), the anti-oxidant capability of 1 μM (micro mole) of trolox corresponding to 1 ORAC unit.
The ORAC values are commonly reported in μmol TE/g (in micromole of Trolox Equivalent per gram of product to be tested).
Given these definitions, the trolox has an ORAC index of about 3995 units.
The ORAC values of the compounds 26 and 34 have been measured (average of 3 measurements).

[2] = system: explants of adipose tissues; test: Slimming effect: glycerol released in culture medium of adipose tissue explants; type: cell-based, human
Procedure: The activity of the compounds of the invention on the adipocytes has been assessed. To do so, tests have been carried out on explants of adipose tissues that are kept alive according to the following experimental protocol. The products to be tested are introduced in the culture medium. After 9 days of treatment, the activity is assessed through an assay of the glycerol released in the culture medium. In order to be able to compare the potential activity of the molecules, caffeine (Sigma ref C-0750 batch 127F0396), which is known for its activity on the adipocytes (Studlar M. […] The explants are prepared from a tummy tuck ([…]-AB-40) carried out on a donor. 54 explants of tissues have been prepared and kept alive in a medium which is supplemented with penicillin/streptomycin antibiotics (Gibco ref 15140 batch 918578) at 37° C. and with 5% of CO2. The treatment has been carried out, on 3 explants, by incorporating 100 μl of the product (which is in turn at a 2% concentration in the adequate solvent, DMSO) in 2 ml of the culture medium on days J0, J2, J3, J5 and J7. Caffeine has been diluted to the desired concentration in the culture medium on these same days. The control explants have undergone no treatment. On J0, the 3 explants have been collected and frozen at -80° C. On J9, the remaining explants have been collected and preserved under the same conditions. The extraction of lipids from the culture medium has been carried out according to a tested procedure. The assay of the glycerol of the culture medium has been carried out using a glycerol assay kit (Megazyme, K-GROL) in the form of 96-well microplates and reading has been made at 340 nm with a Tecam Infinite M200 microplate reader associated to the Magellan software.

[3] = system: normal human dermal fibroblasts; test: Production of progerin in monolayer cultures of normal human dermal fibroblasts (ELISA); type: cell-based; settings: for Progerin % DMSO / Progerin Average / Progerin, individual values / Progerin Difference (%): 96 hours; for Progerin Difference (%): vs DMSO; for neo synthesis of progerin: under the retained experimental conditions
From the text: In order to study the influence of the compounds of the invention on the concentration of progerin in the cells, the assay method described by C. Verdy, J.-E. Branka and N. Mekideche in <<Quantitative assessment of lactate and progerine production in normal human cutaneous cells during normal ageing: effect of an alaria esculenta extract>>, Int. J. Cosmetic Science, 2011, 1-5, has been used.
(§1) The test system consists of monolayers of adult normal human dermal fibroblasts obtained by cultivating cells collected from a tummy tuck carried out on a person.
Insulin at 10 nM has been used as a reference product in this study. […]
(§2) The compound to be tested is solubilized in 1 mg/ml in DMSO, then diluted in the cells incubation medium, with a constant concentration of 0.1% (v/v) in DMSO.
Upon completion of the incubation period, on the one hand, the progerin has been quantified in the cellular lysates (obtained by ultrasonic action) through a sensitive and specific ELISA assay, and on the other hand, the proteins that are contained in the cellular lysates have been quantified by a spectrophotometric method (Bradford method—Bradford M. (1976) Anal. Biochem., 72, 248-254).
(§3) The statistical significance of the differences that have been observed between the <<Control>> and the <<reference product>> conditions, has been assessed through a Student test. The statistical significance of the differences that have been observed between the <<Check>> and the <<test products>> conditions, has been assessed through a one-way analysis of variance (One Way ANOVA) followed by a Holm-Sidak test (*:p<0.05).

[4] = system: normal human dermal fibroblasts; test: Neo synthesis of elastin in monolayer cultures of normal human dermal fibroblasts; type: cell-based; settings: 10 ng/ml, 96 hours
Procedure: as §1
The used reference activator is the ascorbic acid at 100 μg/ml.
The cells have been incubated for 96 hours in the absence (control) or in the presence of the reference product or of increasing concentrations of the active ingredient that is being tested (10 ng/ml; 100 ng/ml; 500 ng/ml).
as §2
Upon completion of the incubation period, the elastin contained in the incubation medium of the explants has been quantified by a spectrophotometric method.
Upon completion of the incubation period, the proteins contained in the cellular lysate have been quantified by a spectrophotometric method (Bradford method—Bradford M. (1976) Anal. Biochem., 72, 248-254).
The results are given in the form of μg of elastin per mg of protein (average+/− the standard deviation, S.D.).

[5] = system: normal human dermal fibroblasts; test: Production of type I pro-collagen in monolayer cultures of normal human dermal fibroblasts (E.I.A.); type: cell-based; settings: 48 hours; for Procollagen Difference (%): vs DMSO
Procedure: as §1
The used reference activator is the Transforming Growth Factor β (TGF-β) at 1 ng/ml. […]
as §2
Upon completion of the incubation period, the type I pro-collagen contained in the fibroblasts incubation media has been quantified using a sensitive and specific E.I.A. kit.
Upon completion of the incubation period, the proteins contained in the cellular lysates have been quantified by a spectrophotometric method (Bradford method—Bradford M. (1976) Anal. Biochem., 72, 248-254).
as §3
The results are given in the form of μg of type I pro-collagen per mg of protein (average+/− the standard deviation, S.D.) and are reported in the following Table 5.

COc1ccc2[nH]cc(CCNC(=O)/C=C/c3cc(OC)c(OC(C)=O)c(OC)c3)c2c1 [Compound 31, 4-acetoxy-3,5-dimethoxy-N-(5-methoxytryptamyl)-cinnamamide]
ORAC Antioxidant activity ([1]; average of 3 measurements): 4874 ± 216 μmol TE/g | melting point: 148 °C

CCCCCCCCCCCCCCCCNC(=O)/C=C/c1cc(OC)c(OC(C)=O)c(OC)c1 [Compound 22]
Glycerol % in comparison with caffeine ([2]; after 9 days of treatment): 124% | slimming action higher than that of caffeine ([2]; after 9 days of treatment): 24% | slimming activity in comparison with caffeine ([2]; after 9 days of treatment): enhanced slimming activity | Glycerol Average ([2]; glycerol released in culture medium after 9 days, 100 μl of 2% product in DMSO in 2 ml medium on J0, J2, J3, J5, J7, 3 explants): 0.114 mg/mL | Progerin % DMSO ([3]; 10 ng/ml): 75.4% | Progerin Average ([3]; 10 ng/ml): 837.7 ng/mg of protein | Progerin, individual values ([3]; 10 ng/ml): 880.7 ng/mg of protein and 801.5 ng/mg of protein and 830.7 ng/mg of protein | Progerin Difference (%) ([3]; 10 ng/ml): −24.6% | Progerin % DMSO ([3]; 100 ng/ml): 52.9% | Progerin Average ([3]; 100 ng/ml): 586.9* ng/mg of protein | Progerin, individual values ([3]; 100 ng/ml): 711.0 ng/mg of protein and 548.8 ng/mg of protein and 500.9 ng/mg of protein | Progerin Difference (%) ([3]; 100 ng/ml): −47.1% | Progerin % DMSO ([3]; 500 ng/ml): 67.8% | Progerin Average ([3]; 500 ng/ml): 752.5 ng/mg of protein | Progerin, individual values ([3]; 500 ng/ml): 967.8 ng/mg of protein and 727.4 ng/mg of protein and 562.4 ng/mg of protein | Progerin Difference (%) ([3]; 500 ng/ml): −32.2% | neo synthesis of progerin [3]: significantly decrease | increase of the neo synthesis of elastin [4]: +16.7%

Cc1c(C)c2c(c(C)c1O)CCC(C)(C(=O)O)O2 (stereo not shown) [Trolox, 6-hydroxy-2,5,7,8-tetramethylchroman-2-carboxylic acid, reference compound]
ORAC index ([1]; reference, given the definitions): about 3995 units | ORAC Antioxidant activity ([1]; reference, value follows from the definition of the ORAC unit): 3995 μmol TE/g

COc1cc(/C=C/C(=O)OCCc2ccc(OC(C)=O)cc2)cc(OC)c1OC(C)=O [Compound 1, 4-acetoxy-3,5-dimethoxy cinnamate of 2-(4-acetoxyphenyl)-ethyl]
melting point: 132 °C

COc1cc(/C=C/C(=O)NCC(O)c2ccc(O)cc2)cc(OC)c1OC(C)=O (stereo not shown) [Compound 39]
ORAC Antioxidant activity ([1]; average of 3 measurements): 20968 ± 992 μmol TE/g

COc1cc(/C=C/C(=O)NCCc2ccc(O)cc2)cc(OC)c1OC(C)=O [Compound 36, 4-acetoxy-3,5-dimethoxy-N-(4′-hydroxyphenylethyl)-cinnamamide]
melting point: 99 °C | Progerin % DMSO ([3]; 50 ng/ml): 84.0% | Progerin Average ([3]; 50 ng/ml): 932.6 ng/mg of protein | Progerin, individual values ([3]; 50 ng/ml): 1552.2 ng/mg of protein and 690.1 ng/mg of protein and 555.6 ng/mg of protein | Progerin Difference (%) ([3]; 50 ng/ml): −16.0% | Progerin % DMSO ([3]; 500 ng/ml): 23.7% | Progerin Average ([3]; 500 ng/ml): 263.6* ng/mg of protein | Progerin, individual values ([3]; 500 ng/ml): 249.8 ng/mg of protein and 288.8 ng/mg of protein and 252.1 ng/mg of protein | Progerin Difference (%) ([3]; 500 ng/ml): −76.3% | Progerin % DMSO ([3]; 5000 ng/ml): 18.8% | Progerin Average ([3]; 5000 ng/ml): 208.2* ng/mg of protein | Progerin, individual values ([3]; 5000 ng/ml): 215.8 ng/mg of protein and 200.8 ng/mg of protein and 207.9 ng/mg of protein | Progerin Difference (%) ([3]; 5000 ng/ml): −81.2% | neo synthesis of progerin [3]: significantly decrease | Procollagen % DMSO ([5]; 50 ng/ml): 121.5% | Procollagen Average ([5]; 50 ng/ml): 63.7* pg/mg of protein | Procollagen, individual values ([5]; 50 ng/ml): 68.1 pg/mg of protein and 57.8 pg/mg of protein and 65.3 pg/mg of protein | Procollagen Difference (%) ([5]; 50 ng/ml): 21.5% | Procollagen % DMSO ([5]; 500 ng/ml): 121.8% | Procollagen Average ([5]; 500 ng/ml): 63.9* pg/mg of protein | Procollagen, individual values ([5]; 500 ng/ml): 59.2 pg/mg of protein and 65.1 pg/mg of protein and 67.2 pg/mg of protein | Procollagen Difference (%) ([5]; 500 ng/ml): 21.8% | Procollagen % DMSO ([5]; 5000 ng/ml): 129.0% | Procollagen Average ([5]; 5000 ng/ml): 67.7* pg/mg of protein | Procollagen, individual values ([5]; 5000 ng/ml): 73.8 pg/mg of protein and 64.8 pg/mg of protein and 64.4 pg/mg of protein | Procollagen Difference (%) ([5]; 5000 ng/ml): 29.0% | increase of the neo synthesis of elastin [4]: +63.7%

COc1cc(/C=C/C(=O)NCCCc2ccccc2)cc(OC)c1OC(C)=O [Compound 26, 4-acetoxy-3,5-dimethoxy-N-(3-phenylpropyl)-cinnamamide]
antioxidant activity in comparison with trolox [1]: slightly higher | melting point: 132 °C

CCCCCCCCCCCCCCCCOC(=O)/C=C/c1cc(OC)c(OC(C)=O)c(OC)c1 [Compound 4, 4-acetoxy-3,5-dimethoxy cinnamate of n-hexadecyl]
melting point: 82 °C

COc1cc(/C=C/C(=O)NC2CC2)cc(OC)c1OC(C)=O [Compound 34]
antioxidant activity in comparison with trolox [1]: 5 times
